The values that follow come from patent publication US20150191606A1, “USE OF VANADIUM-CONTAINING PARTICLES AS A BIOCIDE” (priority 2012, published 2015).

Data set [1] deals with E. coli. Nature of the data set: E. coli growth inhibition test, OD at 595 nm. It is filed as cell-based. As to the method: Overnight cultures of E. coli cells (OneShot® Chemically Competent E. Coli, Cat. No. C4040-10, Invitrogen) in LB media (Cat. No. X968.2, Carl-Roth, Germany) were initially done. For the growth inhibition tests cultures were prepared by initially dispersing VO(acac)2 (Sigma Aldrich, 0.08 mg/ml) in 5 ml LB medium to which KBr (1 mM) and H2O2 (100 μM) were added. To start the culture 20 μl of the overnight E. coli stock was added. The cultures were kept at 37° C. with agitation, and the OD was measured at 595 nm at different time points until 180 min (beginning of stationary phase). As controls either only VO(acac)2 or only H2O2/Br^− was added to the cultures in the concentrations given above. For comparative purposes the same assay was done with V2O5 nanowires (Example 1) in the same concentration range as VO(acac)2 (0.08 mg/ml).

The test system of data set [2] is E. coli. Kind of data set: Biocidal rosine paint formulations on steel plates, DAPI fluorescence, qualitative. It is filed as cell-based. The note with it: Br- 1 mM, H2O2, 3 days at 37° C. The procedure:
A self-polishing rosine formulation was prepared as follows: 22 g of Rosine/Kolophonium (Aldrich) was mixed with 8 g Xylene (Aldrich) and stirred 45 min until well dissolved. Under continuous stirring 0.4 g Thixatrol Max (Elementis) and 1.5 g Bentone SD 1 (Elementis) were added and stirred for at least 5 min. Under continuous stirring 10 g zinc oxide (Aldrich) [optional], 9 g iron oxide red (Aldrich) [optional], 15 g talcum (Aldrich), ×g of biocide and 10-×g of barium sulfate as a filler were added, and the whole mixture was dispersed for at least 15 min at 600-900 rpm. Under stirring 8 g Xylene (Aldrich), 6.7 g Hordaflex LC 50 (Leuna-Tenside) and 8 g petrol 140/180 (Merck) were added.
Steel plates of 2×2 cm were painted directly with no previous treatment with said rosine formulation by brushing and drying for 3 days at room temperature. No surface characterization was performed. […]
After incubation the substrates were gently washed with LB media and PBS buffer. Bacterial cells were stained with […] (DAPI, 1 mg/ml), and fluorescence analysis was performed using an Olympus AHBT3 light microscope together with an AH3-RFC reflected light fluorescence attachment. The presence of bacterial colonies was easily detected by the presence of bright blue “dots” or “clusters”. […]

The next data set deals with V-CPO from C. inaequalis (Curvularia inaequalis, UniProt P49053, L241V/P395D/T343A). The note with it: cited from earlier work.
Chain of V-CPO from C. inaequalis (P49053 whole entry L241V/T343A/P395D): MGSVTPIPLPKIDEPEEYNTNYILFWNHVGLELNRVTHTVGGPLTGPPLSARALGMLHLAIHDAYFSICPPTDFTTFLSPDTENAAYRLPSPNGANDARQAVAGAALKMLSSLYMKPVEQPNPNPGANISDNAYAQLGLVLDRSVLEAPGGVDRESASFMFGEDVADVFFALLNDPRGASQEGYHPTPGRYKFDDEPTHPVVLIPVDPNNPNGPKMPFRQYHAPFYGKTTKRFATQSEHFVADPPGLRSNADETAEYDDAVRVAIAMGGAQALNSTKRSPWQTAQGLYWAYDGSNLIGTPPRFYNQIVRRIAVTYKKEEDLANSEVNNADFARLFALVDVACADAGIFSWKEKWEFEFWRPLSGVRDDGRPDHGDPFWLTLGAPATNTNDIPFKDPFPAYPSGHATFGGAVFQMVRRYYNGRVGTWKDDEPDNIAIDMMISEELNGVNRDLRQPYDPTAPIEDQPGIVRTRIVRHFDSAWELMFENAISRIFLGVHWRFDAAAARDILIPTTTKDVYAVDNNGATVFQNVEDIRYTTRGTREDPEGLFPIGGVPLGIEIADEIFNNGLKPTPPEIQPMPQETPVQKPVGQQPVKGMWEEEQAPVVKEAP

With Vanadyl acetylacetonate [VO(acac)2], in the data set on E. coli [1] (0.08 mg/ml, KBr 1 mM, H2O2 100 μM as named in sample, 180 min), the “Decay in E. coli growth (%)” value is 6%. Also, the “antimicrobial activity by itself” value in the data set with E. coli [1] (without H2O2/Br-) was “no relevant antimicrobial activity”. For the same molecule, the “adherence of E. coli to painted surface” value in the data set with E. coli [2] (0.5% biocide in dry film) and in the data set on E. coli [2] (10% biocide in dry film) was “inhibited the adhesion of E. coli” each time.

B1: wild-type V-CPO from C. inaequalis: wild-type vanadium chloroperoxidase from C. inaequalis (protein, UniProt P49053 1-609, looked up)
Vanadium chloroperoxidase: MGSVTPIPLPKIDEPEEYNTNYILFWNHVGLELNRVTHTVGGPLTGPPLSARALGMLHLAIHDAYFSICPPTDFTTFLSPDTENAAYRLPSPNGANDARQAVAGAALKMLSSLYMKPVEQPNPNPGANISDNAYAQLGLVLDRSVLEAPGGVDRESASFMFGEDVADVFFALLNDPRGASQEGYHPTPGRYKFDDEPTHPVVLIPVDPNNPNGPKMPFRQYHAPFYGKTTKRFATQSEHFLADPPGLRSNADETAEYDDAVRVAIAMGGAQALNSTKRSPWQTAQGLYWAYDGSNLIGTPPRFYNQIVRRIAVTYKKEEDLANSEVNNADFARLFALVDVACTDAGIFSWKEKWEFEFWRPLSGVRDDGRPDHGDPFWLTLGAPATNTNDIPFKPPFPAYPSGHATFGGAVFQMVRRYYNGRVGTWKDDEPDNIAIDMMISEELNGVNRDLRQPYDPTAPIEDQPGIVRTRIVRHFDSAWELMFENAISRIFLGVHWRFDAAAARDILIPTTTKDVYAVDNNGATVFQNVEDIRYTTRGTREDPEGLFPIGGVPLGIEIADEIFNNGLKPTPPEIQPMPQETPVQKPVGQQPVKGMWEEEQAPVVKEAP
In the case of B1, the “optimal pH” value with V-CPO from C. inaequalis is 5.5.
